Results from patent US20070105721A1, “Vinylogous 4-Hpyrones and their use in promoting plant growth” (priority 2003, published 2007).

Tests used:
[1] = test system: Emmenanthe penduliflora seeds; test: Duration of priming required to induce a germination response; type: in vivo; settings: priming in 100 ppb compound 1a, re-drying then incubation; FIG. 5
Protocol: To determine the duration of priming required to induce a germination response, three replicates of 20 seeds of Emmenanthe penduliflora were soaked in at 23° C. in a 100 ppb compound 1a solution for 1, 5, 10, 20, 40 or 80 min or 3, 6, 12, 24 or 48 hr. The seeds were re-dried for 24 hr at 23° C. and placed on Petri dishes lined with seed germination paper and moistened with de-ionised water. The Petri dishes were incubated at 18° C. in constant darkness. Germination (radicle emergence) was recorded every 2-3 days until germination had ceased.

[2] = test system: Cherianthera preissiana; test: Seed priming; type: in vivo; settings: 24 hr priming in 100 ppb compound 1a, re-drying and sowing; note: tested at 0.1 ppm
Protocol: (§1) For testing on Australian species, three replicates of 25 seeds were soaked in one of de-ionised DI water or 100 ppb compound 1a for 24 hr at 23° C. The seeds were re-dried at 23° C. for 24 hr and incubated on Petri dishes containing 0.7% (w/v) water agar in constant darkness at 18° C. Germination (radicle emergence) was recorded every 2-3 days until germination had ceased.

[3] = test system: Opercularia vaginate; test: Seed priming; type: in vivo; settings: 24 hr priming in 100 ppb compound 1a, re-drying and sowing; note: tested at 0.1 ppm
Protocol: as §1

[4] = test system: Centrolepis aristate; test: Seed priming; type: in vivo; settings: 24 hr priming in 100 ppb compound 1a, re-drying and sowing; note: tested at 0.1 ppm
Protocol: as §1

[5] = test system: Phyllanthus calycinus; test: Seed priming; type: in vivo; settings: 24 hr priming in 100 ppb compound 1a, re-drying and sowing; note: tested at 0.1 ppm
Protocol: as §1

[6] = test system: Borya sphaerocephala; test: Seed priming; type: in vivo; settings: 24 hr priming in 100 ppb compound 1a, re-drying and sowing; note: tested at 0.1 ppm
Protocol: as §1

[7] = test system: Brassica tournefortii (wild turnip); test: Weed germination enhancement; type: in vivo; settings: compound 1a at 100 ppb; note: tested at 0.1 ppm
Protocol: (§2) For each species, four replicates of 25 seeds were placed on Petri dishes lined with seed germination paper. The Petri dishes were moistened with de-ionised water (control) or 100 ppb compound 1a. All species were incubated in constant darkness at 12/12 hr alternating temperatures of 7/18° C., 13/26° C. or 18/33° C. Germination (radicle emergence) was recorded every 2-3 days until germination had ceased.

[8] = test system: Acetosa vesicaria (ruby dock); test: Weed germination enhancement; type: in vivo; settings: compound 1a at 100 ppb; note: tested at 0.1 ppm
Protocol: as §2

[9] = test system: Avena fatua (wild oats); test: Weed germination enhancement; type: in vivo; settings: compound 1a at 100 ppb; mean ± standard error; note: tested at 0.1 ppm
Protocol: as §2

[10] = test system: Caulanthus heterophyllus; test: Germination on moist filter paper in petri dishes; type: in vivo; settings: SW 1/10 dilution, compound 1a 10 ppb
[11] = test system: somatic embryos induced from shoot and coleoptile explants of Baloskion tetraphyllum; test: Reactivity of compound 1a with somatic tissue; type: cell-based; settings: for Frequency of shoot formation / Number of shoots: after culturing for 20 days, compound 1a at 10 ppb; for Frequency of shoot formation: tested at 0.01 ppm; for Number of shoots: tested at 0.01 ppm
Protocol: Seeds were cultured on PGR-free 1/2 MS medium for 4 weeks in darkness, then 3 mm coleoptile sections were removed under aseptic conditions and explanted to culture media supplemented with […] 2,4-dichlorophenoxyacetic acid and compound 1a (0, 1.0, 10, 100 ppb, respectively), with incubation in darkness at 22-25° C. Each plate was inoculated with 10 coleoptile sections and every treatment was replicated by 6 plates. […] Shoots of Baloskion tetraphyllum were cultured on 1/2 MS basal medium supplemented with […] in 16 hr light culture (PPFD of 30 μmolm^−2s^−1). After two months, whole shoots were trimmed of upper leaf and basal roots to 4 mm in length, then explanted to culture media with 1 mM 2,4-dichlorophenoxyacetic acid and supplemented with different concentrations of compound 1a (0, 1.0, 10, 100 ppb, respectively) and incubated in darkness at 22-25° C. Each plate was inoculated with 10 trimmed shoots and every treatment replicated with 4 plates. Somatic embryogenesis and plant regeneration was investigated at various intervals.

[12] = test system: Melaleuca carrii seeds; test: Seed vigour enhancement (cumulative germination); type: in vivo; settings: compound 1a at 100 ppb; FIG. 3
Protocol: as §2, with “five” for “four”, “20” for “25”, “was scored on radicle emergence and” for “(radicle emergence)”

[13] = test system: Hakea undulata seeds; test: Seed vigour enhancement (cumulative germination); type: in vivo; settings: compound 1a at 100 ppb; FIG. 4
Protocol: as §2, with “five” for “four”, “20” for “25”, “was scored on radicle emergence and” for “(radicle emergence)”

[14] = test system: Gompholobium tomentosum seeds; test: Seed vigour enhancement (cumulative germination); type: in vivo; settings: compound 1a at 100 ppb; FIG. 3
Protocol: as §2, with “five” for “four”, “20” for “25”, “was scored on radicle emergence and” for “(radicle emergence)”

[15] = test system: Syncarpha vestita; test: Germination enhancement of species used in amenity horticulture; type: in vivo; settings: compound 1a at 100 ppb; constant darkness at 18° C. Note: tested at 0.1 ppm.
Protocol: as §2, with “three” for “four”, “18°” for “12/12 hr alternating temperatures of 7/18° C., 13/26° C. or 18/33°”, “five times a week.” for “every 2-3 days until germination had ceased.”

[16] = test system: Stylidium affine; test: as above; type: in vivo; settings: compound 1a at 100 ppb; constant darkness at 18° C. Note: tested at 0.1 ppm.
Protocol: as §2, with “three” for “four”, “18°” for “12/12 hr alternating temperatures of 7/18° C., 13/26° C. or 18/33°”, “five times a week.” for “every 2-3 days until germination had ceased.”

[17] = test system: Conostylis aculeata; test: as above; type: in vivo; settings: compound 1a at 100 ppb; constant darkness at 18° C.; mean ± standard error; note: tested at 0.1 ppm
Protocol: as §2, with “three” for “four”, “18°” for “12/12 hr alternating temperatures of 7/18° C., 13/26° C. or 18/33°”, “five times a week.” for “every 2-3 days until germination had ceased.”

[18] = test system: Rhodocoma arida; test: as above; type: in vivo; settings: compound 1a at 100 ppb; constant darkness at 18° C. Note: tested at 0.1 ppm.
Protocol: as §2, with “three” for “four”, “18°” for “12/12 hr alternating temperatures of 7/18° C., 13/26° C. or 18/33°”, “five times a week.” for “every 2-3 days until germination had ceased.”

[19] = test system: Passerina vulgaris; test: as above; type: in vivo; settings: compound 1a at 100 ppb; constant darkness at 18° C. Note: tested at 0.1 ppm.
Protocol: as §2, with “three” for “four”, “18°” for “12/12 hr alternating temperatures of 7/18° C., 13/26° C. or 18/33°”, “five times a week.” for “every 2-3 days until germination had ceased.”

[20] = test system: Emmenanthe penduliflora; test: as above; type: in vivo; settings: compound 1a at 100 ppb; constant darkness at 18° C.
Protocol: as §2, with “three” for “four”, “18°” for “12/12 hr alternating temperatures of 7/18° C., 13/26° C. or 18/33°”, “five times a week.” for “every 2-3 days until germination had ceased.”
Throughout, for Germination, Emmenanthe penduliflora: tested at 0.1 ppm.

## Cc1c2ccocc-2oc1=O [Compound 1a, 3-Methyl-2H-furo[2,3-c]pyran-2-one]
[1]
  duration of priming sufficient to induce germination promotion: 1 min
[2]
  Germination (%), Cherianthera preissiana: 46.7 ± 4.8 b %
[3]
  Germination (%), Opercularia vaginate: 22.7 ± 7.4 b %
[4]
  Germination (%), Centrolepis aristate: 88.0 ± 0.0 b %
[5]
  Germination (%), Phyllanthus calycinus: 17.3 ± 1.3 b %
[6]
  Germination (%), Borya sphaerocephala: 13.3 ± 4.8 b %
[7]
  germination percentage, Brassica tournefortii (wild turnip): 92.0 ± 2.8 b %
[8]
  germination percentage, Acetosa vesicaria (ruby dock): 30.0 ± 7.6 b %
[9]
  germination percentage, Avena fatua (wild oats): 38.0 ± 4.3 b %
[10]
  Germination, Caulanthus heterophyllus: 97.3 (±0.7) b %
[11]; Coleoptile explants
  Frequency of shoot formation: 37.0
  Number of shoots: 4.5
[11]; Shoot explants
  Frequency of shoot formation: 58.6
  Number of shoots: 7.8
[11]; once somatic embryos are induced
  root formation and plantlet maturation: significantly enhances
[11]; somatic embryos transferred to hormone-free medium
  plantlet recovery and regeneration: significantly improved
[11]; with 2,4-dichlorophenoxyacetic acid
  effect on the induction phase of somatic embryogenesis: no apparent effect
[12]
  germination rate (cumulative germination), Melaleuca carrii: improved germination rate
[13]
  germination rate (cumulative germination), Hakea undulata: improved germination rate
[14]
  germination rate (cumulative germination), Gompholobium tomentosum: improved germination rate
[15]
  Germination, Syncarpha vestita: 77.5 ± 6.3 b
[16]
  Germination, Stylidium affine: 83.4 ± 3.7 b
[17]
  Germination, Conostylis aculeata: 48.2 ± 3.9 b
[18]
  Germination, Rhodocoma arida: 53.3 ± 3.1 b
[19]
  Germination, Passerina vulgaris: 10.0 ± 4.1 b
[20]
  Germination, Emmenanthe penduliflora: 82.0 ± 4.2 b
